Marks after values point to notes of the source that are not given here.

We go through 70 compounds from US9255093B2, “Polycyclic HERG activators” (NOVARTIS AG, priority 2014, dated 2016).

The target in one series is hERG (human ether-a-go-go-related gene) potassium channel (Homo sapiens, UniProt Q12809). The series can be described thus: QPatch automated patch-clamp hERG activator 4-concentration EC50 assay. As to conditions: increase of hERG tail current amplitude at 7 second (TL7); 3.3 uM (footnote *); hERG stably expressed in CHO cells. Background: The patch-clamp technique gives a direct electrical read-out from membranes.
Sequence of hERG (human ether-a-go-go-related gene) potassium channel (Q12809 whole entry): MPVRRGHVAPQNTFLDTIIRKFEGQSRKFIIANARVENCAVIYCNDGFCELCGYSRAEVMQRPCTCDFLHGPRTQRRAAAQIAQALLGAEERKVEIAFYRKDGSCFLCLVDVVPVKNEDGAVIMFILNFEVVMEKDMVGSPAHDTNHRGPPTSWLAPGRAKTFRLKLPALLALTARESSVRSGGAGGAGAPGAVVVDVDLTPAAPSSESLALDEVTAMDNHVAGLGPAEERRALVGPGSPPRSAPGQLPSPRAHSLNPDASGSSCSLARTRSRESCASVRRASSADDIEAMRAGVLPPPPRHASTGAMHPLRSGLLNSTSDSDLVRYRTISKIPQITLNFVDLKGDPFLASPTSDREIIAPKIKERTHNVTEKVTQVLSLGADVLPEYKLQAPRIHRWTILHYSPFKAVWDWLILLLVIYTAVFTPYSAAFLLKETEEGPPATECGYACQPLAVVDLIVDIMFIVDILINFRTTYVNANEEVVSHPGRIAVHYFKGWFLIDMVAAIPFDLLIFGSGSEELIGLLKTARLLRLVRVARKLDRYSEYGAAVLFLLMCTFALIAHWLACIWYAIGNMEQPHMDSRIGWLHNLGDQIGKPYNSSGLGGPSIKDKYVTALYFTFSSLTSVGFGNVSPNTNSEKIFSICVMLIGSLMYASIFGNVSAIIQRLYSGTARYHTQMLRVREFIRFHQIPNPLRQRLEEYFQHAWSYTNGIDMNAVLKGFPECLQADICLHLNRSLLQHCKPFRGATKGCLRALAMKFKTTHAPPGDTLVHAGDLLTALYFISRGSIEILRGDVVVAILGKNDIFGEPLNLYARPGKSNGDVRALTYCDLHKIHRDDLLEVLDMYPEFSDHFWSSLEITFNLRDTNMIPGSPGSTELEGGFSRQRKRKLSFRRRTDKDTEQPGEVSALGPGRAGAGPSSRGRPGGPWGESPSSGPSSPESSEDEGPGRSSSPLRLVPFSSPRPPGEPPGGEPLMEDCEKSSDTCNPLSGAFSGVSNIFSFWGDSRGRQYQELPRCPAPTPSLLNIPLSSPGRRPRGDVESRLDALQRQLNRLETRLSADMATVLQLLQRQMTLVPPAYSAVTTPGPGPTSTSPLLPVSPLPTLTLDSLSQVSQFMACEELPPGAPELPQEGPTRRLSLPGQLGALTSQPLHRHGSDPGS
Text: A patch-clamp assay on the QPatch© automated patch clamp system was employed to assesses whether compounds functionally enhance the cardiac delayed rectifier hERG (human ether-a-go-go-related gene) potassium channel. The assay measures electric the current passing through hERG channels that are heterologously expressed in a stable Chinese hamster ovary (CHO) cell line. Channels are opened by a hERG-specific voltage protocol and the compound effect is directly characterized by the activation of the hERG current. EC50 values are obtained from fitting 4-concentration dose response curves (1.1, 3.3, 10 & 30 uM) in triplicates at 4 different sections of the voltage protocol (steady state current amplitude at +10 mV, at +30 mV, peak tail current amplitude and tail current amplitude at 7 second).
Turning to `Fc1cc2cc(-c3nnn[nH]3)oc2cc1CNc1ccc(C(F)(F)F)c(Br)c1` [Example 177], the “% change@TL7 (*@3.3 uM)” value is 215* %. Still for that read-out and setting: as for `CCOc1c(F)cc(NCc2ccc3cc(-c4nn[nH]n4)oc3c2)cc1Br` [Example 2], the figure is 126* %. On to `FC(F)(F)Oc1ccc(NCc2ccc3c(-c4nn[nH]n4)coc3c2)cc1Br` [Example 233], for which the “% change@TL7 (*@3.3 uM)” value is reported as 202* %.

Staying with this series, now noted: increase of hERG tail current amplitude at 7 second (TL7); 10 uM; hERG stably expressed in CHO cells.
Turning to `FC(F)(F)Oc1ccc(NCc2ccc3oc(-c4nnn[nH]4)cc3c2)cc1Cl` [Example 65], the “% change@TL7@10 uM” value is recorded as 284%. On the same count and under the same terms, then `FC(F)Oc1ccc(NCc2cc3oc(-c4nnn[nH]4)cc3cc2Cl)cc1C(F)(F)F` [Example 25], with 269%. For the compound `O=C(O)c1cc2ccc(CNc3ccc(OC(F)(F)F)c(Br)c3)cc2o1` [Example 90], the “% change@TL7@10 uM” value was 247%. As for `CCOc1ccc(NCc2ccc3cc(-c4nnn[nH]4)oc3c2Cl)cc1C(F)(F)F` [Example 206], the “% change@TL7@10 uM” value was 160%. The same measure, in the same setting: as for `FC(F)(F)Sc1ccc(NCc2ccc3oc(-c4nnn[nH]4)cc3c2)cc1Cl` [Example 64], the figure is 348%.

As to `CCc1ccc(NCc2cc3oc(-c4nnn[nH]4)cc3cc2F)cc1Br` [Example 181], the “% change@TL7@10 uM” value was found to be 322%. On the same count and under the same terms, then `FC(F)(F)Oc1ccc(NCc2ccc3cc(-c4nn[nH]n4)oc3c2)cc1` [Example 63], with 34%; and `CC(C)Oc1ccc(NCc2cc3oc(-c4nnn[nH]4)cc3cc2F)cc1C(F)(F)F` [Example 163], with 250%. On to `Fc1c(CNc2cc(C(F)(F)F)c(Br)c(C(F)(F)F)c2)ccc2cc(-c3nnn[nH]3)oc12` [Example 151], for which the “% change@TL7@10 uM” value is recorded as 308%. `O=C(O)c1cc2cc(F)c(CNc3ccc(SC(F)(F)F)c(Cl)c3)cc2o1` [Example 228]: the “% change@TL7@10 uM” value was determined as 140%.

Take `O=C(O)c1cc2ccc(CNc3ccc(OCC(F)(F)F)c(Cl)c3)cc2o1` [Example 108]: the “% change@TL7@10 uM” value is recorded as 82%. Take `O=C(O)c1cc2cc(F)c(CNc3ccc(OC(F)F)c(C(F)(F)F)c3)cc2o1` [Example 230]: the “% change@TL7@10 uM” value came to 244%. Still for that read-out and setting: as for `Fc1cc2cc(-c3nnn[nH]3)oc2cc1CNc1ccc(F)c(C(F)(F)F)c1` [Example 176], the figure is 120%; as for `CCCc1cc(NCc2ccc3oc(C(=O)O)cc3c2)ccc1Cl` [Example 126], 64%; as for `CCCc1ccc(NCc2ccc3oc(-c4nnn[nH]4)cc3c2)cc1OC(F)(F)F` [Example 76], 120%. Consider `COc1cc2cc(-c3nnn[nH]3)oc2cc1CNc1ccc(OCC(F)(F)F)c(C(F)(F)F)c1` [Example 153], for which the “% change@TL7@10 uM” value was 381%.

With `CC(C)Oc1ccc(NCc2ccc3cc(-c4nnn[nH]4)oc3c2Cl)cc1C(F)(F)F` [Example 171], the “% change@TL7@10 uM” value is on record as 291%.

As for `Cc1c(-c2nnn[nH]2)oc2cc(CNc3ccc(OC(F)(F)F)c(Br)c3)ccc12` [Example 53], the “% change@TL7@10 uM” value stood at 95%. Consider `O=C(O)c1cc2cc(F)c(CNc3ccc(OCC(F)(F)F)c(C(F)(F)F)c3)cc2o1` [Example 231], for which the “% change@TL7@10 uM” value was 239%. On the same count and under the same terms, as for `CCCc1ccc(NCc2ccc3c(C(F)(F)F)c(C(=O)O)oc3c2)cc1C(F)(F)F` [Example 111], the figure is 65%. As for `O=C(O)c1cc2cc(F)c(CNc3ccc(OCC(F)(F)F)c(Cl)c3)cc2o1` [Example 225], the “% change@TL7@10 uM” value is recorded as 138%.

As to `N#CCOc1ccc(NCc2ccc3cc(-c4nnn[nH]4)oc3c2Cl)cc1C(F)(F)F` [Example 210], the “% change@TL7@10 uM” value turned out to be 134%. As for `FC(F)(F)COc1ccc(NCc2ccc3cc(-c4nnn[nH]4)oc3c2Cl)cc1C(F)(F)F` [Example 187], the “% change@TL7@10 uM” value amounted to 230%. The same measure, in the same setting: as for `O=C(O)c1cc2ccc(CNc3ccc4c(c3)OC(F)(F)C(F)(F)O4)cc2o1` [Example 94], the figure is 194%.

For `O=C(O)c1cc2ccc(CNc3ccc(OC(F)(F)F)c(OC(F)(F)F)c3)cc2o1` [Example 104], the “% change@TL7@10 uM” value is on record as 111%. Same read-out and setting: then `Cc1cc(NCc2ccc3cc(C(=O)O)oc3c2)ccc1OC(F)(F)F` [Example 102], with 153%; and `CCOc1c(Cl)cc(NCc2ccc3c(C(F)(F)F)c(-c4nnn[nH]4)oc3c2)cc1Cl` [Example 49], with 106%. Still for that read-out and setting: then `CCCc1ccc(NCc2cc3oc(-c4nnn[nH]4)cc3cc2F)cc1F` [Example 190], with 167%.

For `CCCc1ccc(NCc2ccc3cc(-c4nnn[nH]4)oc3c2)cc1Br` [Example 42], the “% change@TL7@10 uM” value is 159%.

Turning to `FC1(F)Oc2ccc(NCc3ccc4oc(-c5nnn[nH]5)cc4c3)cc2O1` [Example 67], the “% change@TL7@10 uM” value is listed as 247%. The same measure, in the same setting: as for `Fc1cc2oc(-c3nnn[nH]3)cc2cc1CNc1ccc(OCC(F)(F)F)c(C(F)(F)F)c1` [Example 127], the figure is 268%; as for `CCc1ccc(NCc2ccc3oc(-c4nnn[nH]4)cc3c2)cc1C(F)(F)F` [Example 78], 108%; as for `Fc1cc2oc(-c3nnn[nH]3)cc2cc1CNc1ccc(Cl)c(Cl)c1` [Example 129], 154%. The same measure, in the same setting: then `FC(F)(F)c1cc(NCc2cc3cc(-c4nnn[nH]4)oc3cc2Cl)cc(C(F)(F)F)c1Br` [Example 137], with 166%; and `CCCc1cc(NCc2ccc3oc(C(=O)O)cc3c2)ccc1C(F)(F)F` [Example 125], with 138%; and `O=C(O)c1cc2ccc(CNc3cc(Cl)c(Cl)c(Cl)c3)cc2o1` [Example 86], with 381%. The same measure, in the same setting: as for `FC(F)(F)COc1ccc(NCc2ccc3cc(-c4nn[nH]n4)oc3c2)cc1C(F)(F)F` [Example 27], the figure is 261%. Take `CC(C)c1ccc(NCc2cc3oc(-c4nnn[nH]4)cc3cc2F)cc1Br` [Example 160]: the “% change@TL7@10 uM” value stood at 347%. Same read-out and setting: then `FC1(F)Oc2ccc(NCc3ccc4cc(-c5nn[nH]n5)oc4c3)cc2C(F)(F)O1` [Example 219], with 71%; and `Clc1ccc(NCc2ccc3cc(-c4nn[nH]n4)oc3c2)cc1Br` [Example 182], with 249%. `O=C(O)c1cc2cc(Cl)c(CNc3ccc(OC(F)F)c(C(F)(F)F)c3)cc2o1` [Example 223]: the “% change@TL7@10 uM” value is 176%. On to `CCCc1ccc(NCc2ccc3cc(-c4nnn[nH]4)oc3c2)cc1C(F)(F)F` [Example 16], for which the “% change@TL7@10 uM” value was found to be 521%. Still for that read-out and setting: then `Brc1cccc(NCc2ccc3cc(-c4nn[nH]n4)oc3c2)c1` [Example 59], with 61%; and `FC(F)(F)Oc1cc(NCc2cc3oc(-c4nnn[nH]4)cc3cc2Cl)ccc1Cl` [Example 13], with 39%; and `CCOc1ccc(NCc2cc3oc(-c4nnn[nH]4)cc3cc2F)cc1C(F)(F)F` [Example 161], with 288%.

For the compound `CC(C)Oc1ccc(NCc2cc3oc(-c4nnn[nH]4)cc3cc2Cl)cc1C(F)(F)F` [Example 18], the “% change@TL7@10 uM” value worked out at 409%. On the same count and under the same terms, then `COc1ccc(NCc2ccc3cc(C(=O)O)oc3c2)cc1Cl` [Example 115], with 41%; and `COc1ccc(NCc2ccc3cc(C(=O)O)oc3c2)cc1C(F)(F)F` [Example 117], with 28%. Turning to `CC(Nc1cc(Cl)c(Cl)c(Cl)c1)c1ccc2oc(-c3nnn[nH]3)cc2c1` (stereo not shown) [Example 73], the “% change@TL7@10 uM” value came to 132%. Same read-out and setting: as for `CCc1ccc(NCc2ccc3oc(C(=O)O)cc3c2)cc1C(F)(F)F` [Example 124], the figure is 167%; as for `FC(F)(F)Oc1ccc(NCc2cc3oc(-c4nnn[nH]4)cc3cc2Cl)cc1C(F)(F)F` [Example 6], 264%; as for `Cc1nc2cc(NCc3ccc4cc(C(=O)O)oc4c3)ccc2s1` [Example 114], 45%. For the compound `O=C(O)c1cc2cc(CNc3cc(Cl)c(Cl)c(Cl)c3)ccc2o1` [Example 120], the “% change@TL7@10 uM” value is on record as 282%. `Fc1ccc(NCc2cc3oc(-c4nnn[nH]4)cc3cc2Cl)cc1OC(F)(F)F` [Example 9]: the “% change@TL7@10 uM” value is listed as 78%. On the same count and under the same terms, as for `CCCc1ccc(NCc2ccc3oc(-c4nnn[nH]4)cc3c2)cc1C(F)(F)F` [Example 66], the figure is 261%; as for `FC(F)(F)COc1ccc(NCc2cc3oc(-c4nnn[nH]4)cc3cc2Cl)cc1C(F)(F)F` [Example 22], 328%.

Consider `O=C(O)c1cc2ccc(CNc3ccc(S(F)(F)(F)(F)F)cc3)cc2o1` [Example 99], for which the “% change@TL7@10 uM” value is recorded as 157%. On the same count and under the same terms, then `CC(C)c1ccc(NCc2cc3oc(-c4nnn[nH]4)cc3cc2Cl)cc1C(F)(F)F` [Example 207], with 297%; and `FC(F)(F)c1cc(NCc2ccc3cc(-c4nn[nH]n4)oc3c2)ccc1Br` [Example 39], with 164%; and `O=C(O)c1cc2ccc(CNc3ccc4c(c3)OC(F)(F)O4)cc2o1` [Example 89], with 270%.

Regarding `N#Cc1cc(NCc2ccc3cc(-c4nnn[nH]4)oc3c2Cl)ccc1OC(F)F` [Example 202], the “% change@TL7@10 uM” value was 174%. Still for that read-out and setting: as for `CCCc1ccc(NCc2cc3oc(-c4nnn[nH]4)cc3cc2Cl)cc1Br` [Example 34], the figure is 191%.

On to `FC(F)(F)Oc1ccc(NCc2ccc3cc(-c4nn[nH]n4)oc3c2)cc1Br` [Example 37, N-((2-(2H-tetrazol-5-yl)benzofuran-6-yl)methyl)-3-bromo-4-(trifluoromethoxy)aniline], for which the “% change@TL7@10 uM” value stood at 170%. Same read-out and setting: then `Clc1cc(NCc2ccc3cc(-c4nn[nH]n4)oc3c2)cc(Cl)c1Cl` [Example 19], with 394%. On the same count and under the same terms, then `Fc1cc2oc(-c3nnn[nH]3)cc2cc1CNc1ccc(OC(F)(F)F)c(C(F)(F)F)c1` [Example 130], with 220%; and `CSc1ccc(NCc2ccc3cc(C(=O)O)oc3c2)cc1C(F)(F)F` [Example 96], with 185%. For `FC(F)(F)c1ccc(NCc2cc3oc(-c4nnn[nH]4)cc3cc2Cl)cc1Cl` [Example 198], the “% change@TL7@10 uM” value was 187%.
